According to patent US12628822B2, “Plant pathogen defence elicitors” (UNIVERSITÉ LIBRE DE BRUXELLES, priority 2020, dated 2026):

How the values were obtained:
defence marker genes = assay: qPCR analysis of defence marker gene expression in Arabidopsis plants; assay type: in vivo, Arabidopsis thaliana
Procedure: Arabidopsis thaliana Columbia (Col-0) was the accession used for all the experiments. Seeds were surface sterilised by subsequent treatment with 50% v/v Et-OH and 3% bleach solution in agitation for 5 and 10 min, respectively. Seeds were then washed three times with distilled water and stratified for 3 days at 4° C. in the dark. For qPCR analysis and microarray experiments, seeds were sown on square petri dishes ([…]) containing half strength Murashige and Skoog (MS) salt, 2.5 mM MES, 1% w/v sucrose and 0.8% w/v plant agar. The experiments were performed using 14-day old seedlings grown vertically in a controlled growth cabinet with short day conditions ( 8/16 h light/dark; 100 μmol photons m^−2 s^−1) at 22±0.5° C. Treatments were performed by applying 40-50 μl of fresh-prepared and filtered solution per seedling.
For RNA extraction, 14-day old leaves from ten independent plants were collected at the indicated time point after treatments, pooled and frozen in liquid nitrogen. Total RNA was extracted from 100 mg of ground-frozen samples using the Maxwell® LEV Plant RNA Kit (Promega, Madison, WI, USA) and the RNA integrity was determined through NanoDrop 2000 UV-Vis Spectrophotometer (Thermo Scientific, Loughborough, UK). First-strand cDNA was synthesized by using SOLIScript® RT cDNA synthesis MIX (Solis Biodyne, Tartu, Estonia) and qPCRs were performed using SYBR® Selected MasterMix 2× (Applied Biosystems, Thermo Fisher Scientific, Waltham, USA), following the manufacturers' protocols. The cycling conditions consisted of an initial 7 min at 95° C., followed by 40 two-step cycles at 95° C. for 5 s and at 60° C. for 30 s. Melting curve analysis was performed after cycle completion to validate amplicon identity. Relative expression levels were calculated following the standard curve-based method (Larionov et al. A standard curve based method for relative real time PCR data processing, BMC Bioinformatics. 2005, vol. 6, 1) by using ACTIN as reference. Gene-specific primers used in this work are indicated below. […]

callose deposition = assay: Callose staining in Arabidopsis leaves; assay type: in vivo, Arabidopsis thaliana; conditions: 6 and 24 h after treatment; 100 μM AA9_COS, 100 μM cellobiose or 1 μM FLG22; 5-week old plants
Procedure: Callose deposits quantification was performed essentially as described by Zarattini et al. (The bile acid deoxycholate elicits defences in Arabidopsis and reduces bacterial infection. Mol Plant Pathol. 2017, vol. 18(4), 540-554). […] Leaves were examined by stereofluorescence microscopy with an Azio Zoom V.16 (Carl Zeiss Inc., Oberkochen, Germany) and callose spots were quantified using ImageJ software.
Among them, several genes were associated to callose deposition in the cell wall (FIG. 4).

oxidative burst = assay: Oxidative burst detection (DAB, NBT, luminol-based assays); assay type: in vivo, Arabidopsis thaliana
Procedure: Hydrogen peroxide was assayed in both in vitro-growth and in soil-growth Arabidopsis plants. In situ detection of H2O2 was performed following the protocol described by Daudi and O'Brien (Detection of Hydrogen Peroxide by DAB Staining in Arabidopsis Leaves. Bio Protoc. 2012, vol. 2(18), e263). Briefly, 5-week-old Col-O plants leaves were droplet-treated (40-50 μl drops per leaf) with indicated compounds. At 24 h after treatment four rosette leaves from five independent plants were gently vacuum-infiltrated (5 min) with 1 mg ml^−1 3,3′-diaminobenzidine (DAB) dissolved in 10 mM sodium phosphate buffer and 0.05% v/v Tween 80. The staining reaction was terminated 5 h after DAB infiltration, and leaves were fixed in ethanol:glycerol:acetic acid 3:1:1. Chlorophyll was removed by several washing steps with 70% v/v ethanol and pictures were token with a stereomicroscope (Discovery V8, Zeiss).
Elicitor-induced H2O2 was also detected by luminol-peroxidase-based assay as described by Albert et al. (Chemiluminescence Detection of the Oxidative Burst in Plant Leaf Pieces. Bio-protocol 2015, vol. 5(6), e1423). Briefly, twenty leaves from 10 independent 4-5-week-old Col-0 plants were cut and incubated in ddH2O overnight. Time course luminescence was evaluated using The SpectraMax iD3 Multi-Mode Microplate Reader (Molecular devices, San Jose, CA, USA) with an integration time per well=1000 ms. […]

Botrytis cinerea = assay: Protection of tomato plants against Botrytis cinerea (lesion areas); assay type: in vivo; conditions: 100 μM; 4 weeks old tomato plants; compared with 100 μM AA9_COS
Procedure: All experiments were carried on 4 weeks old tomato plants infected with 10^6 spores per millilitres of Botrytis cinerea.
Protection of tomatoes plant against pathogen Botrytis cinerea using several combinations of native cellodextrines, and C1-oxidised, C4-oxidised, and optionally C1- and C4-oxidised (double oxidised) cellodextrines was tested (FIG. 14). In particular, the numerals in FIG. 14 represent mixtures with the following molar proportions of the respective cellodextrins components: • native:C1-oxidised:C4-oxidised • (1) 4:5:1; (2) 6.5:3:0.5; (3) 3:6.5:0.5; (4) 4:3:3; (5) 4:1:5; (6) 0.5:9:0.5; • native:C1-oxidised:C4-oxidised:doubly oxidised • (7) 0.5:4:0.5:5; (8) 2.5:2.5:2.5:2.5.
All experiments were carried on 4 weeks old tomato plants infected with 10^6 spores of Botrytis cinerea. All mixtures were applied having the same molar mass concentration of 100 μM.

[1] = vs CTR, same array-hybridised RNA

For `OC[C@H]1O[C@@H](O[C@H]2[C@H](O)[C@@H](O)[C@H](O)O[C@@H]2CO)[C@H](O)[C@@H](O)[C@@H]1O` [Cellobiose, β-D-glucopyranosyl(1→4)D-glucopyranose], the “mRNA accumulation of MPK3/6, WRKY33, PAD3 and PEN3” value (defence marker genes; 100 μM, 1 and 24 hours, 14-day old plants) was “lower magnitude of expression”, the “LOX4 (AT1G72520) gene expression, qPCR” value (defence marker genes; [1]) was 0.69 fold change and the “MPK3 (AT3G45640) gene expression, qPCR” value (defence marker genes; [1]) was 0.02 fold change. The “MPK6 (AT2G43790) gene expression, qPCR” value (defence marker genes; [1]) was 0.55 fold change, the “PAD3 (AT3G26830) gene expression, qPCR” value (defence marker genes; [1]) was −1.06 fold change and the “PEN3 (AT1G59870) gene expression, qPCR” value (defence marker genes; [1]) was 1.07 fold change. The “PR1 (AT2G14610) gene expression, qPCR” value (defence marker genes; [1]) was 1.29 fold change, the “WRKY18 (AT4G31800) gene expression, qPCR” value (defence marker genes; [1]) was 2.60 fold change and the “WRKY22 (AT4G01250) gene expression, qPCR” value (defence marker genes; [1]) was 1.10 fold change. The “WRKY33 (AT2G38470) gene expression, qPCR” value (defence marker genes; [1]) was 1.31 fold change, the “IGMT2 (At1G21120) gene expression, qPCR” value (defence marker genes; vs mock, same array-hybridised RNA) was −1.59 fold change and the callose accumulation (callose deposition) was “no visible callose spots”. For the same compound, the “short-term extracellular H2O2 production (luminol-based assay)” value (oxidative burst; 14-day old plants) was “no H2O2 production was detected”, the “in situ production of H2O2 and O2− (DAB and NBT assays)” value (oxidative burst; 24 h after treatments, 5-week old plants) was “no measurable production” and the “protection of tomato plants (size of lesion areas)” value (Botrytis cinerea) was “less protective effect”.
